The record followed here is patent publication US20090069319A1, “IMIDAZOPYRIDINE ANALOGS AND THEIR USE AS AGONISTS OF THE WNT-BETA-CATENIN CELLULAR MESSAGING SYSTEM” (Wyeth, priority 2007, published 2009).

The assay can be described thus: Functional Dkk1-LRP5-TCF-Luciferase Assay in U2OS Cells (table columns: A=MAX FOLD Induction/DMSO CONTROL; B=fold induction @ 2.0 uM; C=fold induction @ 20.0 uM). It counts as cell-based, Human. Conditions: Homo sapiens, U2OS; for fold induction at 2 µM: 2.0 uM compound; for fold induction at 20 µM: 20.0 uM compound. In short, it runs like this:
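U2OS cells co-transfected with 16×TCF-TK-firefly luciferase, TK-Renilla control, Wnt3a and Dkk1, then frozen; thawed cells (~5,000/well, ~5% FBS, phenol red-free RPMI) incubated ~20 h at 37° C. with compound (0.25% DMSO). Firefly luminescence (Bright-Glo) normalized to DMSO mean as fold induction.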

As usually defined, the fold induction is the ratio of treated to control signal. For `O=C(N1CCOCC1)N1CCC(n2cnc3c(-c4ccc5ccccc5c4)ccnc32)CC1` [3-[1-(morpholin-4-ylcarbonyl)piperidin-4-yl]-7-(2-naphthyl)-3H-imidazo[4,5-b]pyridine], the fold induction at 2 µM worked out at 1.08 and the fold induction at 20 µM stood at 1.25. Consider `Cc1ccc(CCn2cnc3c(-c4ccc5ccccc5c4)ccnc32)cc1` [3-[2-(4-methylphenyl)ethyl]-7-(2-naphthyl)-3H-imidazo[4,5-b]pyridine], for which the fold induction at 2 µM turned out to be 0.76 and the fold induction at 20 µM was determined as 0.98. The matching figures for `O=[N+]([O-])c1ccc(O)cc1-c1nc2c(-c3ccc4ccccc4c3)ccnc2n1C1CCNCC1` [3-[7-(2-naphthyl)-3-piperidin-4-yl-3H-imidazo[4,5-b]pyridin-2-yl]-4-nitrophenol]: 1.4 and 0.98.

On to `Oc1cccc(-c2nc3c(-c4ccc5ccccc5c4)ccnc3n2C2CCNCC2)c1O` [3-[7-(2-naphthyl)-3-piperidin-4-yl-3H-imidazo[4,5-b]pyridin-2-yl]benzene-1,2-diol], for which the fold induction at 2 µM was 1.33. Turning to `Oc1cccc(-c2nc3c(-c4ccc5ccccc5c4)ccnc3n2C2CCNCC2)c1` [3-[7-(2-naphthyl)-3-piperidin-4-yl-3H-imidazo[4,5-b]pyridin-2-yl]phenol], the fold induction at 2 µM is 1.58.

`c1ccc2cc(-c3ccnc4c3nc(-c3cnc5ccccc5c3)n4C3CCNCC3)ccc2c1` [3-[7-(2-naphthyl)-3-piperidin-4-yl-3H-imidazo[4,5-b]pyridin-2-yl]quinoline]: the fold induction at 2 µM was 1.44. For the molecule `Cc1nc2c(-c3ccc4ccccc4c3)ccnc2n1C1CNC1` [3-azetidin-3-yl-2-methyl-7-(2-naphthyl)-3H-imidazo[4,5-b]pyridine], the fold induction at 2 µM was 1.16 and the fold induction at 20 µM came out at 0.76.

Take `c1ccc2cc(-c3ccnc4c3ncn4C3CNC3)ccc2c1` [3-azetidin-3-yl-7-(2-naphthyl)-3H-imidazo[4,5-b]pyridine]: the fold induction at 2 µM is 1.49 and the fold induction at 20 µM was 1.25. For the molecule `c1ccc2cc(-c3cnc4c(c3)nc(-c3ccnc5ccccc35)n4C3CCNCC3)ccc2c1` [4-[6-(2-naphthyl)-3-piperidin-4-yl-3H-imidazo[4,5-b]pyridin-2-yl]quinoline], the fold induction at 2 µM turned out to be 1.81. As to `c1ccc(N(c2ccccc2)c2ccc(-c3nc4c(-c5ccc6ccccc6c5)ccnc4n3C3CCNCC3)cc2)cc1` [4-[7-(2-naphthyl)-3-piperidin-4-yl-3H-imidazo[4,5-b]pyridin-2-yl]-N,N-diphenylaniline], the fold induction at 2 µM came out at 1.89. In the case of `N#Cc1ccc(-c2nc3c(-c4ccc5ccccc5c4)ccnc3n2C2CCNCC2)cc1` [4-[7-(2-naphthyl)-3-piperidin-4-yl-3H-imidazo[4,5-b]pyridin-2-yl]benzonitrile], the fold induction at 2 µM was 1.58. The same measure, in the same setting: the figure for `Oc1ccc(-c2nc3c(-c4ccc5ccccc5c4)ccnc3n2C2CCNCC2)cc1` [4-[7-(2-naphthyl)-3-piperidin-4-yl-3H-imidazo[4,5-b]pyridin-2-yl]phenol] is 1.3; for `c1ccc2cc(-c3ccnc4c3nc(-c3ccnc5ccccc35)n4C3CCNCC3)ccc2c1` [4-[7-(2-naphthyl)-3-piperidin-4-yl-3H-imidazo[4,5-b]pyridin-2-yl]quinoline] it is 1.07; for `c1ccc2cc(-c3ccc4ncn(C5CCNCC5)c4n3)ccc2c1` [5-(2-naphthyl)-3-piperidin-4-yl-3H-imidazo[4,5-b]pyridine] it is 0.32. Regarding `c1ccc2cc(-c3cnc4c(c3)nc(-c3cccc5ncccc35)n4C3CCNCC3)ccc2c1` [5-[6-(2-naphthyl)-3-piperidin-4-yl-3H-imidazo[4,5-b]pyridin-2-yl]quinoline], the fold induction at 2 µM was 1.29.

`O=c1[nH]cc(-c2nc3c(-c4ccc5ccccc5c4)ccnc3n2C2CCNCC2)c(=O)[nH]1` [5-[7-(2-naphthyl)-3-piperidin-4-yl-3H-imidazo[4,5-b]pyridin-2-yl]pyrimidine-2,4(1H,3H)-dione]: the fold induction at 2 µM is 1.94 and the fold induction at 20 µM came out at 1.91. Consider `c1ccc2cc(-c3ccnc4c3nc(-c3cccc5ncccc35)n4C3CCNCC3)ccc2c1` [5-[7-(2-naphthyl)-3-piperidin-4-yl-3H-imidazo[4,5-b]pyridin-2-yl]quinoline], for which the fold induction at 2 µM was determined as 1.33. In the case of `O=[N+]([O-])c1ccccc1-c1nc2cc(-c3ccc4ccccc4c3)cnc2n1C1CCNCC1` [6-(2-naphthyl)-2-(2-nitrophenyl)-3-piperidin-4-yl-3H-imidazo[4,5-b]pyridine], the fold induction at 2 µM stood at 1.13. For `O=[N+]([O-])c1cccc(-c2nc3cc(-c4ccc5ccccc5c4)cnc3n2C2CCNCC2)c1` [6-(2-naphthyl)-2-(3-nitrophenyl)-3-piperidin-4-yl-3H-imidazo[4,5-b]pyridine], the fold induction at 2 µM was determined as 1.3. As for `c1ccc(-c2nc3cc(-c4ccc5ccccc5c4)cnc3n2C2CCNCC2)cc1` [6-(2-naphthyl)-2-phenyl-3-piperidin-4-yl-3H-imidazo[4,5-b]pyridine], the fold induction at 2 µM was found to be 1.6.

On to `c1csc(-c2nc3cc(-c4ccc5ccccc5c4)cnc3n2C2CCNCC2)c1` [6-(2-naphthyl)-3-piperidin-4-yl-2-(2-thienyl)-3H-imidazo[4,5-b]pyridine], for which the fold induction at 2 µM came out at 1.04. As for `CCCc1nc2cc(-c3ccc4ccccc4c3)cnc2n1C1CCNCC1` [6-(2-naphthyl)-3-piperidin-4-yl-2-propyl-3H-imidazo[4,5-b]pyridine], the fold induction at 2 µM amounted to 1.38 and the fold induction at 20 µM came out at 0.01. Take `c1ccc(-c2nc3cc(-c4ccc5ccccc5c4)cnc3n2C2CCNCC2)nc1` [6-(2-naphthyl)-3-piperidin-4-yl-2-pyridin-2-yl-3H-imidazo[4,5-b]pyridine]: the fold induction at 2 µM amounted to 1.6 and the fold induction at 20 µM is 0.005.

Turning to `c1ccc2cc(-c3cnc4c(c3)nc(-c3ccncc3)n4C3CCNCC3)ccc2c1` [6-(2-naphthyl)-3-piperidin-4-yl-2-pyridin-4-yl-3H-imidazo[4,5-b]pyridine], the fold induction at 2 µM came out at 1.56 and the fold induction at 20 µM is 0.005. Regarding `c1ccc2cc(-c3cnc4c(c3)ncn4C3CCNCC3)ccc2c1` [6-(2-naphthyl)-3-piperidin-4-yl-3H-imidazo[4,5-b]pyridine], the fold induction at 2 µM was determined as 1.53. Consider `[O-][n+]1ccc(-c2nc3c(-c4ccc5ccccc5c4)ccnc3n2C2CCNCC2)cc1` [7-(2-naphthyl)-2-(1-oxidopyridin-4-yl)-3-piperidin-4-yl-3H-imidazo[4,5-b]pyridine], for which the fold induction at 2 µM was 1.45 and the fold induction at 20 µM was determined as 0.06.

For the molecule `O=[N+]([O-])c1ccccc1-c1nc2c(-c3ccc4ccccc4c3)ccnc2n1C1CCNCC1` [7-(2-naphthyl)-2-(2-nitrophenyl)-3-piperidin-4-yl-3H-imidazo[4,5-b]pyridine], the fold induction at 2 µM came out at 1.14. As to `O=[N+]([O-])c1cccc(-c2nc3c(-c4ccc5ccccc5c4)ccnc3n2C2CCNCC2)c1` [7-(2-naphthyl)-2-(3-nitrophenyl)-3-piperidin-4-yl-3H-imidazo[4,5-b]pyridine], the fold induction at 2 µM came out at 1.29. As for `c1ccc(Oc2cccc(-c3nc4c(-c5ccc6ccccc6c5)ccnc4n3C3CCNCC3)c2)cc1` [7-(2-naphthyl)-2-(3-phenoxyphenyl)-3-piperidin-4-yl-3H-imidazo[4,5-b]pyridine], the fold induction at 2 µM was 1.4. Turning to `O=[N+]([O-])c1ccc(-c2nc3c(-c4ccc5ccccc5c4)ccnc3n2C2CCNCC2)cc1` [7-(2-naphthyl)-2-(4-nitrophenyl)-3-piperidin-4-yl-3H-imidazo[4,5-b]pyridine], the fold induction at 2 µM came to 1.42. Regarding `O=[N+]([O-])c1ccc(-c2nc3c(-c4ccc5ccccc5c4)ccnc3n2C2CCNCC2)s1` [7-(2-naphthyl)-2-(5-nitro-2-thienyl)-3-piperidin-4-yl-3H-imidazo[4,5-b]pyridine], the fold induction at 2 µM is 1.83 and the fold induction at 20 µM worked out at 0.01. As to `c1ccc(-c2nc3c(-c4ccc5ccccc5c4)ccnc3n2C2CCNCC2)cc1` [7-(2-naphthyl)-2-phenyl-3-piperidin-4-yl-3H-imidazo[4,5-b]pyridine], the fold induction at 2 µM amounted to 1.23 and the fold induction at 20 µM was 0.05. As for `O=C(N1CCC(n2cnc3c(-c4ccc5ccccc5c4)ccnc32)CC1)C(F)(F)F` [7-(2-naphthyl)-3-[1-(trifluoroacetyl)piperidin-4-yl]-3H-imidazo[4,5-b]pyridine], the fold induction at 2 µM came out at 1.58 and the fold induction at 20 µM came out at 0.39. Take `O=c1[nH]c2c(-c3ccc4ccccc4c3)ccnc2n1C1CCNCC1` [7-(2-naphthyl)-3-piperidin-4-yl-1,3-dihydro-2H-imidazo[4,5-b]pyridin-2-one]: the fold induction at 2 µM turned out to be 1.29 and the fold induction at 20 µM is 0.04. With `c1c[nH]c(-c2nc3c(-c4ccc5ccccc5c4)ccnc3n2C2CCNCC2)c1` [7-(2-naphthyl)-3-piperidin-4-yl-2-(1H-pyrrol-2-yl)-3H-imidazo[4,5-b]pyridine], the fold induction at 2 µM was 1.25.

As to `c1csc(-c2nc3c(-c4ccc5ccccc5c4)ccnc3n2C2CCNCC2)c1` [7-(2-naphthyl)-3-piperidin-4-yl-2-(2-thienyl)-3H-imidazo[4,5-b]pyridine], the fold induction at 2 µM amounted to 1.22 and the fold induction at 20 µM was found to be 0.04.

Turning to `c1ccc2cc(-c3ccnc4c3nc(-c3ccsc3)n4C3CCNCC3)ccc2c1` [7-(2-naphthyl)-3-piperidin-4-yl-2-(3-thienyl)-3H-imidazo[4,5-b]pyridine], the fold induction at 2 µM came out at 1.17 and the fold induction at 20 µM is 0.01. On to `C=Cc1cccc(-c2nc3c(-c4ccc5ccccc5c4)ccnc3n2C2CCNCC2)c1` [7-(2-naphthyl)-3-piperidin-4-yl-2-(3-vinylphenyl)-3H-imidazo[4,5-b]pyridine], for which the fold induction at 2 µM is 1.44.
